Experimental data from PubChem BioAssay (NCI).
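Grown in 96-well plates, cells were treated for 48 hours with each compound at five concentrations. Insufficient inhibition: endpoint recorded as highest concentration tested. At the GI50, growth is halved. At the TGI there is no net growth.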

How the values were obtained:
Experiment in all cases: inhibition of tumour cell growth, NCI panel, 48 h
A549 NSCLC = tested on: A549 NSCLC
SN12C renal = tested on: SN12C renal
NCI-H23 lung = tested on: NCI-H23 lung
HCT-15 colon = tested on: HCT-15 colon
KM12 colon = tested on: KM12 colon
IGROV1 ovarian = tested on: IGROV1 ovarian
UACC-257 melanoma = tested on: UACC-257 melanoma
SK-MEL-5 melanoma = tested on: SK-MEL-5 melanoma
M14 melanoma = tested on: M14 melanoma
T-47D breast = tested on: T-47D breast

SMILES | TGI (A549 NSCLC) | TGI (SN12C renal) | TGI (NCI-H23 lung) | TGI (HCT-15 colon) | TGI (KM12 colon) | TGI (IGROV1 ovarian) | TGI (UACC-257 melanoma) | TGI (SK-MEL-5 melanoma) | TGI (M14 melanoma) | GI50 (A549 NSCLC) | GI50 (SN12C renal) | GI50 (NCI-H23 lung) | GI50 (HCT-15 colon) | GI50 (KM12 colon) | GI50 (T-47D breast) | TGI (T-47D breast) | GI50 (UACC-257 melanoma) | GI50 (M14 melanoma) | GI50 (SK-MEL-5 melanoma) | GI50 (IGROV1 ovarian)
CC(=O)OC1CCn2nnc(COC(=O)NC(C)C)c21 (stereo unspecified) | > 100 µM | > 100 µM | > 100 µM | > 100 µM | > 100 µM | > 100 µM | > 100 µM | > 100 µM | > 100 µM |  |  |  |  |  |  |  |  |  |  | 
Cc1ccc(NC(=O)/C(CC(=O)c2c[n+](=O)c3ccccc3n2O)=N\NC(=O)C[n+]2ccccc2)cc1 | > 100 µM | > 100 µM |  | > 100 µM | > 100 µM | > 100 µM | > 100 µM | > 100 µM | > 100 µM |  |  |  |  |  |  |  |  |  |  | 
C=CC1CC12C(=O)C1OC2(C)C2C(=O)c3c(ccc4c3ccc3ccccc34)C(=O)C12 (stereo unspecified) | > 100 µM | > 100 µM | > 100 µM | 80.6 µM | > 100 µM |  | > 100 µM |  | > 100 µM | 95.2 µM | 64.3 µM | 37.3 µM | 14.2 µM | 13.1 µM | 19.7 µM | > 100 µM | 89.4 µM | 67.3 µM |  | 
CCc1c2c(nc3cc4c(cc13)OCO4)-c1cc3c(c(=O)n1C2)COC(=O)[C@@]3(CC)OC(=O)CN | 0.149 µM | 0.034 µM | < 0.0158 µM | > 100 µM | 0.309 µM |  | 0.286 µM | 0.037 µM | < 0.0247 µM | < 0.01 µM | < 0.01 µM | < 0.01 µM | 0.0236 µM | < 0.0143 µM | < 0.01 µM | 0.512 µM | < 0.0154 µM | < 0.01 µM | < 0.01 µM | 
CC(c1ccc(Br)cc1)C(C(=O)O)C(=O)O (stereo unspecified) | > 100 µM | > 100 µM | > 100 µM | > 100 µM | > 100 µM | > 100 µM | > 100 µM | > 100 µM | > 100 µM |  |  |  |  |  |  |  |  |  |  | 
CC(=O)N1CC2Nc3ccccc3C2CC1CO (stereo unspecified) | > 100 µM | > 100 µM | > 100 µM | > 100 µM | > 100 µM | > 100 µM | > 100 µM | > 100 µM | > 100 µM |  |  |  |  |  |  |  |  |  |  | 
O=C1c2ccccc2C(=O)N1c1ccc(S(=O)(=O)Nc2ncccn2)cc1 | > 100 µM | > 100 µM | > 100 µM | > 100 µM | > 100 µM | > 100 µM | > 100 µM | > 100 µM | > 100 µM | > 100 µM | > 100 µM | > 100 µM | > 100 µM | > 100 µM |  |  | > 100 µM | > 100 µM | > 100 µM | > 100 µM
O=C1/C(=C/c2ccccc2Cl)N=C(c2ccccc2)N1Cc1ccco1 | > 100 µM | > 100 µM | > 100 µM | > 100 µM | > 100 µM |  | 39.8 µM | 36.3 µM | 38.2 µM | 27.7 µM | 50.6 µM | 40.5 µM | 25.5 µM | 36.1 µM | 53.2 µM | > 100 µM | 21.2 µM | 18.6 µM | 17.9 µM | 
N#Cc1ccccc1C#C/C=C\C#Cc1ccc(OCCCNC(=O)c2cc3ccccc3[nH]2)cc1 | > 100 µM |  | 98.2 µM | > 100 µM | 44.2 µM | 33.7 µM | > 100 µM | 20.2 µM | > 100 µM | 22.9 µM |  | 24.2 µM | 26.2 µM | 16.3 µM | 12.4 µM | 29.7 µM | 23 µM | 21.8 µM | 4.24 µM | 14.1 µM
COc1cc(/C=C/C(C)=O)ccc1OP(=O)(O)O | > 100 µM | > 100 µM | > 100 µM | > 100 µM | > 100 µM | > 100 µM | > 100 µM | > 100 µM | > 100 µM |  |  |  |  |  |  |  |  |  |  | 
O=C(CCC(=O)Nc1ccc(Cl)cc1)CC(=O)c1ccc(F)cc1 | > 100 µM | > 100 µM | > 100 µM | > 100 µM | > 100 µM | > 100 µM | > 100 µM |  | > 100 µM |  |  |  |  |  |  |  |  |  |  | 
O=C1CCCC/C1=C/C=C/c1ccccc1 | > 100 µM | > 100 µM | > 100 µM |  | > 100 µM | > 100 µM | > 100 µM | > 100 µM | > 100 µM |  |  |  |  |  |  |  |  |  |  | 
O=c1[nH]c(Br)nc2c(Br)c[nH]c12 | > 100 µM | > 100 µM | > 100 µM | > 100 µM | > 100 µM | > 100 µM | > 100 µM | > 100 µM | > 100 µM |  |  |  |  |  |  |  |  |  |  | 
O=c1ccccc2cccc(O)c12 | > 100 µM | > 100 µM | > 100 µM | > 100 µM |  | > 100 µM | > 100 µM | > 100 µM | > 100 µM |  |  |  |  |  |  |  |  |  |  | 
COc1ccc2c3c1C(=O)CCC3CO2 (stereo unspecified) | > 100 µM | > 100 µM | > 100 µM | > 100 µM | > 100 µM | > 100 µM | > 100 µM | > 100 µM | > 100 µM |  |  |  |  |  |  |  |  |  |  | 
CC1=CC(C)(C)N=C2SC(c3ccc(Cl)cc3)=NN12 | > 100 µM |  | 81.5 µM | > 100 µM | > 100 µM | > 100 µM | > 100 µM | 33.9 µM | > 100 µM |  |  |  |  |  |  |  |  |  |  | 
CN(C)CCn1c2ccccc2c2nc3cc4ccccc4cc3nc21 | 16.9 µM | 17.8 µM | 24 µM | 18.7 µM | 16.8 µM | 10.7 µM |  | 26.5 µM | 16.4 µM |  |  |  |  |  |  |  |  |  |  | 
CCC[CH2][Sn]([CH2]CCC)([O]C(=O)c1cccc(F)c1)[O]C(=O)c1cccc(F)c1 | 9.45 µM | 3.16 µM | 1.57 µM | 3.45 µM | 2.79 µM | 2.93 µM | 2.6 µM | 2.76 µM | 2.88 µM | 2.89 µM | 1.29 µM | 0.329 µM | 1.16 µM | 1.29 µM |  |  | 1.17 µM | 1.34 µM | 1.39 µM | 1.43 µM
O=C(O)/C(=C/c1ccccc1[N+](=O)[O-])c1ccccc1 | > 100 µM | > 100 µM | > 100 µM | > 100 µM | > 100 µM | > 100 µM | > 100 µM | > 100 µM | > 100 µM |  |  |  |  |  |  |  |  |  |  | 
CCOc1ccccc1/C=C1\NC(=O)N(/C=C2\C(=O)Oc3ccccc3C2=O)C1=O | > 100 µM | > 100 µM | 95.5 µM | > 100 µM | > 100 µM | > 100 µM | > 100 µM | 57.9 µM | > 100 µM |  |  |  |  |  |  |  |  |  |  | 
